Reference: ChEMBL document CHEMBL1123820 (J Med Chem, 1987)
Active and inactive are the calls of the source. The calls are words filed in the database; no cut-off is given here. Where a SMILES comes first, the peptide text is derived from it. [ ]: non-standard residue; d: D form. The star is where a group is joined. Orn = NCCC[C@H](N)C(=O)O; OBn = c1ccc(CO*)cc1

Columns and labels:
[1] = species: Rattus norvegicus; assay: Relative activity was measured in vitro with respect to substance P (SP) in rat colon muscularis mucosae; assay type: functional, Muscularis mucosa
[2] = species: Cavia porcellus; assay: Relative activity was measured in vitro with respect to substance P (SP) in guinea pig ileum; assay type: functional
[3] = species: Rattus norvegicus; assay: Relative activity was measured in vitro with respect to substance P (SP) in rat colon muscularis mucosae at a concentration of 10 uM; Inactive; assay type: functional; settings: Muscularis mucosa
[4] = species: Cavia porcellus; assay: Relative activity was measured in vitro with respect to substance P (SP) in guinea pig ileum at a concentration of 10 uM; Inactive; assay type: functional

Compound	Relative activity [1]	Relative activity [2]	Relative activity [3]	Relative activity [4]
CC(C)C[C@H](NC(=O)CNC(=O)[C@H](Cc1ccccc1)NC(=O)[C@H](Cc1ccccc1)NC(=O)[C@@H](N)CCCN)C(=O)N[C@@H](CCC(=O)OCc1ccccc1)C(N)=O (H-[Orn]FFGLE(OBn)-NH2)	0.61	0.14	–	–
CC(C)C[C@H](NC(=O)CNC(=O)[C@H](Cc1ccccc1)NC(=O)[C@H](Cc1ccccc1)NC(=O)[C@@H](N)CCCN)C(=O)N[C@@H](CCC(=O)O)C(N)=O (H-[Orn]FFGLE-NH2)	<0.01	0.00058	–	–
CC(C)C[C@H](NC(=O)CNC(=O)[C@H](Cc1ccccc1)NC(=O)[C@H](Cc1ccccc1)NC(=O)[C@@H](N)CCCN)C(=O)N[C@@H](CCCCN)C(N)=O (H-[Orn]FFGLK-NH2)	–	–	inactive	inactive
CSCC[C@H](NC(=O)[C@H](CC(C)C)NC(=O)CNC(=O)[C@H](Cc1ccccc1)NC(=O)[C@H](Cc1ccccc1)NC(=O)[C@@H](N)CCCN)C(N)=O (H-[Orn]FFGLM-NH2)	0.36	0.39	–	–
CC(C)C[C@H](NC(=O)CNC(=O)[C@H](Cc1ccccc1)NC(=O)[C@H](Cc1ccccc1)NC(=O)[C@@H](N)CCCN)C(=O)N[C@@H](CCC(N)=O)C(N)=O (H-[Orn]FFGLQ-NH2)	<0.01	0.0022	–	–
H-QFFGLM-NH2	0.076	0.3	–	–
